Results published in US4259235A, “Tricyclic nitrogenous compounds having string plant growth regulating properties” (BASF Aktiengesellschaft, priority 1977, dated 1981).

Assays:
spring barley [1] = assay: Growth height of spring barley, soil (preemergence) treatment, Example 9; type: in vivo, spring barley ("Union" variety); settings: 30 days
Procedure: Spring wheat of the "Opal" variety and spring barley of the "Union" variety were grown in the winter half of the year under greenhouse conditions in plastic dishes 11.5 cm in diameter, in a peat substrate provided with sufficient nutrients.
The reductions in growth height caused by the treatment were determined by measuring the height of the plants at the end of the experiment after 30 days' growth, and comparing it with that of untreated plants.

spring wheat = assay: Growth height of spring wheat, leaf treatment, Example 11; type: in vivo, spring wheat ("Opal" variety)
Procedure: (§1) The test plants--spring wheat ("Opal" variety), spring barley ("Union" variety) and spring rye ("Petkuser" variety)--were grown under greenhouse conditions in plastic dishes 11.5 cm in diameter, in a peat substrate provided with sufficient nutrients.
(§2) Leaf treatment was effected by spraying the plants at a growth height of 11 cm with aqueous formulations of the active ingredients, at three application rates.
(§3) The shortening effect caused by the compounds was shown by measurements of the height of the plants at the end of the experiment.
(§4) The prior art compound N,N,N-trimethyl-N-β-chloroethylammonium chloride (CCC, German Printed Application DAS No. 1,294,734) was used for comparison purposes.

spring barley [2] = assay: Growth height of spring barley, soil treatment, Example 11; type: in vivo, spring barley ("Union" variety)
Procedure: as §1
(§5) The soil (preemergence) treatment was effected after sowing by pouring aqueous formulations of the active ingredients, at four application rates, onto the surface of the substrate.
as §3, §4

spring barley [3] = assay: Growth height of spring barley, leaf treatment, Example 11; type: in vivo, spring barley ("Union" variety)
Procedure: as §1, §2, §3, §4

spring rye [4] = assay: Growth height of spring rye, soil treatment, Example 11; type: in vivo, spring rye ("Petkuser" variety)
Procedure: as §1, §5, §3, §4

spring rye [5] = assay: Growth height of spring rye, leaf treatment, Example 11; type: in vivo, spring rye ("Petkuser" variety)
Procedure: as §1, §2, §3, §4

potted vines = assay: Tolerance by potted vines in greenhouse; spray application; type: in vivo
Procedure: (§6) Plastic flowerpots having a volume of 300 cm^3 were filled with a sandy loam and the test plants placed therein (either as seed, as vegetatively reproduced species, or as potted plants, e.g., vines). For preemergence treatment, the active ingredients were suspended or emulsified in water as vehicle and sprayed onto the surface of the soil immediately after sowing by means of finely distributing nozzles. The potted vines were treated by spraying them with the correspondingly diluted liquor. For postemergence treatment, the agents were, as stated above, sprayed in water onto the leaves of the test plants, some liquor also falling onto the soil. In some special cases, solid active ingredients were first dissolved in dimethylformamide and then applied in a total liquor amount of 400 liters of water per hectare. For the postemergence treatment, the plants were first grown to a height of from 3 to 10 cm before being treated. With grasses, the first growth was cut, and the new growth treated 2 to 3 days after cutting. The temperature requirements of the plants were taken into account by placing them in cooler or warmer sections of the greenhouse. The experiments were run for from 4 to 6 weeks, during which time the plants were tended and their reaction to the various treatments was assessed.
(§7) The application rates are given in kg/ha of active ingredient, regardless of the method of application and the amount of water used.
(§8) A 0 to 100 scale was used for the evaluation, 0 denoting normal emergence or no damage (or no inhibition), and 100 denoting non-emergence or complete destruction of the plants. A distinction should be made in the influence on growth between desired changes without any appreciable disadvantageous phytotoxic effects (e.g., purely growth-regulating effects) and those of a phytotoxic herbicical character.

Arachys hypogaea = assay: Shoot growth, postemergence treatment in the greenhouse (table 25); type: in vivo
Procedure: as §6, §7, §8

Poa pratensis = assay: as above; type: in vivo
Procedure: as §6, §7, §8

**Q.** What does the source list for `C1C2C3N=NC3C1C1OC21` (stereo not drawn) [drawing 390]?
**A.** Plant height (spring barley [1]; 3 kg/ha): 25.0 cm; Plant height, % of untreated control (spring barley [1]; 3 kg/ha): 77.4%; Plant height (spring barley [1]; 12 kg/ha): 14.0 cm; Plant height, % of untreated control (spring barley [1]; 12 kg/ha): 43.3%

**Q.** Which results are given for `c1ccc(C2=NOC3C4CC(C5N=NC45)C23)cc1` (stereo not drawn) [drawing 391]?
**A.** Plant height (spring barley [1]; 3 kg/ha): 24.5 cm; Plant height, % of untreated control (spring barley [1]; 3 kg/ha): 75.9%; Plant height (spring barley [1]; 12 kg/ha): 16.0 cm; Plant height, % of untreated control (spring barley [1]; 12 kg/ha): 49.5%

**Q.** What does the source list for `c1ccc(C2=NNC3C4CC(C5N=NC45)C23)cc1` (stereo not drawn) [drawing 416]?
**A.** Plant height (spring wheat; 0.75 kg/ha): 26.5 cm; Plant height, % of untreated control (spring wheat; 0.75 kg/ha): 86.0%; Plant height (spring wheat; 1.50 kg/ha): 25.5 cm; Plant height, % of untreated control (spring wheat; 1.50 kg/ha): 82.8%; Plant height (spring wheat; 3.00 kg/ha): 24.0 cm; Plant height, % of untreated control (spring wheat; 3.00 kg/ha): 77.9%

**Q.** With `c1ccc(C2=NNC3C4CC(C5N=NC45)C23)cc1` (stereo not drawn) [drawing 417] as the compound, how does the Plant height (spring barley [2]; 0.75 kg/ha) read?
**A.** 32.0 cm

**Q.** And the “Plant height, % of untreated control” value (spring barley [2]; 0.75 kg/ha)?
**A.** 97.6%

**Q.** And the Plant height (spring barley [2]; 1.50 kg/ha)?
**A.** 28.0 cm

**Q.** What about the “Plant height, % of untreated control” value (spring barley [2]; 1.50 kg/ha) of the same compound?
**A.** 85.4%

**Q.** What about the Plant height (spring barley [2]; 3.00 kg/ha) of the same compound?
**A.** 27.0 cm

**Q.** What about the “Plant height, % of untreated control” value (spring barley [2]; 3.00 kg/ha) of the same compound?
**A.** 82.3%

**Q.** What about the Plant height (spring barley [2]; 6.00 kg/ha) of the same compound?
**A.** 23.0 cm

**Q.** What about the “Plant height, % of untreated control” value (spring barley [2]; 6.00 kg/ha) of the same compound?
**A.** 70.1%

**Q.** What does the source list for `c1ccc(C2N=NC3C4CC(C5N=NC45)C23)cc1` (stereo not drawn) [drawing 418]?
**A.** Plant height (spring barley [3]; 0.75 kg/ha): 23.5 cm; Plant height, % of untreated control (spring barley [3]; 0.75 kg/ha): 84.5%; Plant height (spring barley [3]; 1.50 kg/ha): 23.0 cm; Plant height, % of untreated control (spring barley [3]; 1.50 kg/ha): 82.7%; Plant height (spring barley [3]; 3.00 kg/ha): 21.5 cm; Plant height, % of untreated control (spring barley [3]; 3.00 kg/ha): 77.3%

**Q.** With `Clc1ccc(NC2C(Cl)C3CC2C2N=NC32)cc1` (stereo not drawn) [drawing 419] as the compound, how does the Plant height (spring barley [3]; 0.75 kg/ha) read?
**A.** 26.0 cm

**Q.** And the “Plant height, % of untreated control” value (spring barley [3]; 0.75 kg/ha)?
**A.** 93.5%

**Q.** What about the Plant height (spring barley [3]; 1.50 kg/ha) of the same compound?
**A.** 25.5 cm

**Q.** What about the “Plant height, % of untreated control” value (spring barley [3]; 1.50 kg/ha) of the same compound?
**A.** 91.7%

**Q.** And the Plant height (spring barley [3]; 3.00 kg/ha)?
**A.** 23.5 cm

**Q.** What about the “Plant height, % of untreated control” value (spring barley [3]; 3.00 kg/ha) of the same compound?
**A.** 84.5%

**Q.** How did the Plant height (spring rye [4]; 0.75 kg/ha) turn out when `Clc1ccc(NC2C(Cl)C3CC2C2N=NC32)cc1` (stereo not drawn) [drawing 421] was run?
**A.** 28.0 cm

**Q.** What about the “Plant height, % of untreated control” value (spring rye [4]; 0.75 kg/ha) of the same compound?
**A.** 86.7%

**Q.** What about the Plant height (spring rye [4]; 1.50 kg/ha) of the same compound?
**A.** 27.0 cm

**Q.** And the “Plant height, % of untreated control” value (spring rye [4]; 1.50 kg/ha)?
**A.** 83.5%

**Q.** And the Plant height (spring rye [4]; 3.00 kg/ha)?
**A.** 25.0 cm

**Q.** And the “Plant height, % of untreated control” value (spring rye [4]; 3.00 kg/ha)?
**A.** 77.4%

**Q.** And the Plant height (spring rye [4]; 6.00 kg/ha)?
**A.** 23.0 cm

**Q.** And the “Plant height, % of untreated control” value (spring rye [4]; 6.00 kg/ha)?
**A.** 71.2%

**Q.** What does the source list for `c1ccc(C2N=NC3C4CC(C5N=NC45)C23)cc1` (stereo not drawn) [drawing 422]?
**A.** Plant height (spring rye [5]; 0.75 kg/ha): 23.0 cm; Plant height, % of untreated control (spring rye [5]; 0.75 kg/ha): 80.7%; Plant height (spring rye [5]; 1.50 kg/ha): 20.5 cm; Plant height, % of untreated control (spring rye [5]; 1.50 kg/ha): 71.9%; Plant height (spring rye [5]; 3.00 kg/ha): 20.5 cm; Plant height, % of untreated control (spring rye [5]; 3.00 kg/ha): 71.9%

**Q.** Which Plant height (spring rye [5]; 0.75 kg/ha) does the source give for `Clc1ccc(NC2C(Cl)C3CC2C2N=NC32)cc1` (stereo not drawn) [drawing 423] here?
**A.** 25.5 cm

**Q.** And the “Plant height, % of untreated control” value (spring rye [5]; 0.75 kg/ha)?
**A.** 89.5%

**Q.** And the Plant height (spring rye [5]; 1.50 kg/ha)?
**A.** 24.5 cm

**Q.** What about the “Plant height, % of untreated control” value (spring rye [5]; 1.50 kg/ha) of the same compound?
**A.** 86.0%

**Q.** What about the Plant height (spring rye [5]; 3.00 kg/ha) of the same compound?
**A.** 24.5 cm

**Q.** What about the “Plant height, % of untreated control” value (spring rye [5]; 3.00 kg/ha) of the same compound?
**A.** 86.0%

**Q.** What does the source list for `BrC1C(Br)C2CC1C1N=NC21` (stereo not drawn) [drawing 427]?
**A.** Potted vines - leaf damage (potted vines; 4.0 and 8.0 kg/ha): none; Change in shoot growth (potted vines; 4.0 kg/ha): 14.7 cm; Change in shoot growth (potted vines; 8.0 kg/ha): 13.3 cm

**Q.** Which Shoot length (Arachys hypogaea; 1.0 kg/ha) does the source give for `CN(C)NC(=O)CCC(=O)O` [drawing 434] here?
**A.** 12 cm

**Q.** And the Shoot length (Arachys hypogaea; 2.0 kg/ha)?
**A.** 5 cm

**Q.** And the Shoot length (Arachys hypogaea; 4.0 kg/ha)?
**A.** 5 cm

**Q.** And the Shoot length (Poa pratensis; 1.0 kg/ha)?
**A.** 4 cm

**Q.** What about the Shoot length (Poa pratensis; 2.0 kg/ha) of the same compound?
**A.** 4 cm

**Q.** And the Shoot length (Poa pratensis; 4.0 kg/ha)?
**A.** 4 cm
